{"source": "patent US20230399373A1", "about": "“MOLECULAR DESIGNS OF GLUCOSE-RESPONSIVE AND GLUCOSE-CLEAVABLE INSULIN ANALOGUES” (THE TRUSTEES OF INDIANA UNIVERSITY, priority 2020, published 2023)", "type_in_all_cases": "cell-based", "key": {"IR [1]": {"system": "IR", "assay": "Western blot assays of fructose-dependent insulin signaling (IR autophosphorylation, p-AKT/AKT, p-FOXO1/FOXO1, p-GSK-3/GSK-3) in HepG2 cells", "settings": "single hormone dose 50 nM", "procedure": "Signal propagation was probed via a cytoplasmic kinase cascade and changes in metabolic gene expression in HepG2 cells. […] An overview of IR autophosphorylation (probed by anti-pTyr IR antibodies) and downstream phosphorylation of Ser-Thr protein kinase AKT (protein kinase B; ratio p-AKT/AKT), forkhead transcription factor 1 (p-FOXO1/FOXO1), and glycogen synthase kinase-3 (p-GSK-3/GSK-3) at a single hormone dose (50 nM) was provided by Western blot (WB; FIG. 4 D-F). […] The activity of FRI in the absence of fructose is low."}, "IR [2]": {"system": "IR", "assay": "96-well plate assay of dose-dependent and ligand-selective IR autophosphorylation", "procedure": "Quantitative dose-dependent and ligand-selective IR autophosphorylation were evaluated in a 96-well plate assay (FIG. 5A). FRI triggered a robust signal on addition of 50 mM fructose whereas baseline activity in the absence of fructose was low."}, "HepG2 cells": {"system": "HepG2 cells", "assay": "PCR assays of ligand-selective metabolic gene regulation (PEPCK, ChREBP, SREBP) in HepG2 cells", "settings": "control studies", "procedure": "Insulin-signaling in hepatocytes extends to metabolic transcriptional regulation as recapitulated in HepG2 cells. […] Control studies were undertaken in the absence of insulin analogs to assess potential confounding changes in metabolic gene expression on addition of 0 to 100 mM fructose or 0 to 100 mM glucose."}}, "data": [{"substance": "insulin lispro [KP]", "values": [{"measurement": "signaling by Western blot (IR autophosphorylation, p-AKT/AKT, p-FOXO1/FOXO1, p-GSK-3/GSK-3): dependence on fructose", "setting": "IR [1]", "value": "fructose-independent signaling"}, {"measurement": "IR autophosphorylation signal on addition of 50 mM fructose", "setting": "IR [2]; 50 mM fructose", "value": "high signaling activity"}, {"measurement": "effect of addition of 50 mM glucose on IR autophosphorylation activity", "setting": "IR [2]; 50 mM glucose", "value": "did not influence"}, {"measurement": "IR autophosphorylation baseline activity in the absence of fructose", "setting": "IR [2]; no fructose", "value": "high signaling activity"}, {"measurement": "fructose dependence of metabolic gene regulation", "setting": "HepG2 cells", "value": "No fructose dependence"}]}]}
